Key:
Test in all cases: relative viability (nuclei count vs DMSO), 5 days (fraction); higher = more cells survive
[1] = tested on: NCI-H1975
In short: (§1)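 Lung cancer cell lines, seeded in 1536-well plates, were treated the following day by pin tool with a single drug or with five library-drug doses (not always all listed) in √10 steps on top of a fixed anchor-drug dose. Cells were fixed and nuclei stained in one step after 5 days, and nuclei were counted. Relative viability is the nuclei count for treated wells divided by that for vehicle wells, reported as medians of duplicate plates.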

[2] = tested on: NCI-H358
In short: as §1

[3] = tested on: NCI-H2342
In short: as §1

[4] = tested on: HCC-15
In short: as §1

[5] = tested on: NCI-H647
In short: as §1

[6] = tested on: HOP-62
In short: as §1

[7] = tested on: NCI-H2126
In short: as §1

[8] = tested on: RERF-LC-KJ
In short: as §1

[9] = tested on: A-427
In short: as §1

[10] = tested on: NCI-H1915
In short: as §1

[11] = tested on: HCC-78
In short: as §1

[12] = tested on: NCI-H2347
In short: as §1

[13] = tested on: LC-2-ad
In short: as §1

[14] = tested on: SK-LU-1
In short: as §1

[15] = tested on: NCI-H1734
In short: as §1

[16] = tested on: NCI-H522
In short: as §1

[17] = tested on: LXF-289
In short: as §1

[18] = tested on: NCI-H1792
In short: as §1

[19] = tested on: NCI-H1755
In short: as §1

[20] = tested on: PC-3 [JPC-3]
In short: as §1

[21] = tested on: SW 1573
In short: as §1

Question: For `CCN(CC)CCCCNc1ncc2cc(-c3cc(OC)cc(OC)c3)c(NC(=O)NC(C)(C)C)nc2n1` + Nc1ncn([C@H]2C[C@H](O)[C@@H](CO)O2)c(=O)n1 [Decitabine] (partner 2 µM), which relative viability ([1]; first compound 0.01 µM) is on record?
Answer: 0.396

Question: And the relative viability ([1]; first compound 0.03162 µM)?
Answer: 0.395

Question: And the relative viability ([1]; first compound 0.1 µM)?
Answer: 0.381

Question: And the relative viability ([1]; first compound 0.3162 µM)?
Answer: 0.389

Question: And the relative viability ([1]; first compound 1 µM)?
Answer: 0.358

Question: And the relative viability ([2]; first compound 0.01 µM)?
Answer: 0.199

Question: What about the relative viability ([2]; first compound 0.03162 µM) of the same molecule?
Answer: 0.235

Question: And the relative viability ([2]; first compound 0.1 µM)?
Answer: 0.227

Question: What about the relative viability ([2]; first compound 0.3162 µM) of the same molecule?
Answer: 0.24

Question: And the relative viability ([2]; first compound 1 µM)?
Answer: 0.19

Question: What about the relative viability ([3]; first compound 0.01 µM) of the same molecule?
Answer: 0.692

Question: And the relative viability ([3]; first compound 0.03162 µM)?
Answer: 0.668

Question: And the relative viability ([3]; first compound 0.1 µM)?
Answer: 0.697

Question: And the relative viability ([3]; first compound 0.3162 µM)?
Answer: 0.781

Question: What about the relative viability ([3]; first compound 1 µM) of the same molecule?
Answer: 0.807

Question: What about the relative viability ([4]; first compound 0.01 µM) of the same molecule?
Answer: 0.691

Question: And the relative viability ([4]; first compound 0.03162 µM)?
Answer: 0.635

Question: What about the relative viability ([4]; first compound 0.1 µM) of the same molecule?
Answer: 0.655

Question: And the relative viability ([4]; first compound 0.3162 µM)?
Answer: 0.68

Question: And the relative viability ([4]; first compound 1 µM)?
Answer: 0.51

Question: And the relative viability ([5]; first compound 0.01 µM)?
Answer: 0.429

Question: And the relative viability ([5]; first compound 0.03162 µM)?
Answer: 0.383

Question: And the relative viability ([5]; first compound 0.1 µM)?
Answer: 0.489

Question: What about the relative viability ([5]; first compound 0.3162 µM) of the same molecule?
Answer: 0.349

Question: What about the relative viability ([5]; first compound 1 µM) of the same molecule?
Answer: 0.361

Question: What about the relative viability ([6]; first compound 0.01 µM) of the same molecule?
Answer: 0.243

Question: And the relative viability ([6]; first compound 0.03162 µM)?
Answer: 0.207

Question: What about the relative viability ([6]; first compound 0.1 µM) of the same molecule?
Answer: 0.208

Question: What about the relative viability ([6]; first compound 0.3162 µM) of the same molecule?
Answer: 0.207

Question: And the relative viability ([6]; first compound 1 µM)?
Answer: 0.268

Question: What about the relative viability ([7]; first compound 0.01 µM) of the same molecule?
Answer: 0.555

Question: And the relative viability ([7]; first compound 0.03162 µM)?
Answer: 0.568

Question: What about the relative viability ([7]; first compound 0.1 µM) of the same molecule?
Answer: 0.556

Question: What about the relative viability ([7]; first compound 0.3162 µM) of the same molecule?
Answer: 0.603

Question: And the relative viability ([7]; first compound 1 µM)?
Answer: 0.63

Question: What about the relative viability ([8]; first compound 0.01 µM) of the same molecule?
Answer: 0.697

Question: What about the relative viability ([8]; first compound 0.03162 µM) of the same molecule?
Answer: 0.687

Question: What about the relative viability ([8]; first compound 0.1 µM) of the same molecule?
Answer: 0.74

Question: And the relative viability ([8]; first compound 0.3162 µM)?
Answer: 0.717

Question: And the relative viability ([8]; first compound 1 µM)?
Answer: 0.603

Question: What about the relative viability ([9]; first compound 0.01 µM) of the same molecule?
Answer: 0.626

Question: And the relative viability ([9]; first compound 0.03162 µM)?
Answer: 0.506

Question: What about the relative viability ([9]; first compound 0.1 µM) of the same molecule?
Answer: 0.518

Question: And the relative viability ([9]; first compound 0.3162 µM)?
Answer: 0.548

Question: And the relative viability ([9]; first compound 1 µM)?
Answer: 0.524

Question: What about the relative viability ([10]; first compound 0.01 µM) of the same molecule?
Answer: 0.24

Question: And the relative viability ([10]; first compound 0.03162 µM)?
Answer: 0.243

Question: And the relative viability ([10]; first compound 0.1 µM)?
Answer: 0.256

Question: What about the relative viability ([10]; first compound 0.3162 µM) of the same molecule?
Answer: 0.242

Question: And the relative viability ([10]; first compound 1 µM)?
Answer: 0.266

Question: And the relative viability ([11]; first compound 0.01 µM)?
Answer: 0.697

Question: And the relative viability ([11]; first compound 0.03162 µM)?
Answer: 0.769

Question: And the relative viability ([11]; first compound 0.1 µM)?
Answer: 0.683

Question: What about the relative viability ([11]; first compound 0.3162 µM) of the same molecule?
Answer: 0.666

Question: And the relative viability ([11]; first compound 1 µM)?
Answer: 0.636

Question: What about the relative viability ([12]; first compound 0.01 µM) of the same molecule?
Answer: 0.573

Question: What about the relative viability ([12]; first compound 0.03162 µM) of the same molecule?
Answer: 0.62

Question: And the relative viability ([12]; first compound 0.1 µM)?
Answer: 0.623

Question: And the relative viability ([12]; first compound 0.3162 µM)?
Answer: 0.626

Question: And the relative viability ([12]; first compound 1 µM)?
Answer: 0.578

Question: What about the relative viability ([13]; first compound 0.01 µM) of the same molecule?
Answer: 0.827

Question: What about the relative viability ([13]; first compound 0.03162 µM) of the same molecule?
Answer: 0.81

Question: What about the relative viability ([13]; first compound 0.1 µM) of the same molecule?
Answer: 0.823

Question: And the relative viability ([13]; first compound 0.3162 µM)?
Answer: 0.852

Question: What about the relative viability ([13]; first compound 1 µM) of the same molecule?
Answer: 0.775

Question: And the relative viability ([14]; first compound 0.01 µM)?
Answer: 0.628

Question: What about the relative viability ([14]; first compound 0.03162 µM) of the same molecule?
Answer: 0.608

Question: What about the relative viability ([14]; first compound 0.1 µM) of the same molecule?
Answer: 0.59

Question: And the relative viability ([14]; first compound 0.3162 µM)?
Answer: 0.705

Question: What about the relative viability ([14]; first compound 1 µM) of the same molecule?
Answer: 0.448

Question: And the relative viability ([15]; first compound 0.01 µM)?
Answer: 0.485

Question: What about the relative viability ([15]; first compound 0.03162 µM) of the same molecule?
Answer: 0.372

Question: And the relative viability ([15]; first compound 0.1 µM)?
Answer: 0.534

Question: What about the relative viability ([15]; first compound 0.3162 µM) of the same molecule?
Answer: 0.473

Question: What about the relative viability ([15]; first compound 1 µM) of the same molecule?
Answer: 0.475

Question: And the relative viability ([16]; first compound 0.01 µM)?
Answer: 0.625

Question: What about the relative viability ([16]; first compound 0.03162 µM) of the same molecule?
Answer: 0.573

Question: What about the relative viability ([16]; first compound 0.1 µM) of the same molecule?
Answer: 0.748

Question: And the relative viability ([16]; first compound 0.3162 µM)?
Answer: 0.651

Question: And the relative viability ([16]; first compound 1 µM)?
Answer: 0.548

Question: What about the relative viability ([17]; first compound 0.01 µM) of the same molecule?
Answer: 0.336

Question: What about the relative viability ([17]; first compound 0.03162 µM) of the same molecule?
Answer: 0.364

Question: And the relative viability ([17]; first compound 0.1 µM)?
Answer: 0.363

Question: What about the relative viability ([17]; first compound 0.3162 µM) of the same molecule?
Answer: 0.424

Question: And the relative viability ([17]; first compound 1 µM)?
Answer: 0.377

Question: What about the relative viability ([18]; first compound 0.01 µM) of the same molecule?
Answer: 0.522

Question: What about the relative viability ([18]; first compound 0.03162 µM) of the same molecule?
Answer: 0.552

Question: What about the relative viability ([18]; first compound 0.1 µM) of the same molecule?
Answer: 0.536

Question: What about the relative viability ([18]; first compound 0.3162 µM) of the same molecule?
Answer: 0.489

Question: And the relative viability ([18]; first compound 1 µM)?
Answer: 0.479

Question: What about the relative viability ([19]; first compound 0.01 µM) of the same molecule?
Answer: 0.72

Question: What about the relative viability ([19]; first compound 0.03162 µM) of the same molecule?
Answer: 0.715

Question: And the relative viability ([19]; first compound 0.1 µM)?
Answer: 0.712

Question: And the relative viability ([19]; first compound 0.3162 µM)?
Answer: 0.756

Question: What about the relative viability ([19]; first compound 1 µM) of the same molecule?
Answer: 0.685

Question: What about the relative viability ([20]; first compound 0.03162 µM) of the same molecule?
Answer: 0.708

Question: What about the relative viability ([20]; first compound 0.1 µM) of the same molecule?
Answer: 0.928

Question: And the relative viability ([20]; first compound 0.3162 µM)?
Answer: 0.851

Question: And the relative viability ([20]; first compound 1 µM)?
Answer: 0.804

Question: What about the relative viability ([21]; first compound 0.01 µM) of the same molecule?
Answer: 0.441

Question: And the relative viability ([21]; first compound 0.03162 µM)?
Answer: 0.528

Question: And the relative viability ([21]; first compound 0.1 µM)?
Answer: 0.583

Question: And the relative viability ([21]; first compound 0.3162 µM)?
Answer: 0.591

Question: What about the relative viability ([21]; first compound 1 µM) of the same molecule?
Answer: 0.435

Source: the supplement of paper PMC10307832
